Source: patent US20260199533A1, “RA[…]-AFFINITY COMPOUND AND USE THEREOF” (Osaka University, priority 2022, published 2026)

Columns and labels:
[1] = test system: FAPα/293 cells (293 cells transfected with the human fibroblast activation protein (FAPα) gene); assay: Uptake of 211At-labeled FAPI derivatives into FAPα/293 cells; format: cell-based; conditions: cultured 30 min, gamma counter, rank order of the three highest of eight derivatives
Protocol: Human embryonic kidney 293 cells (HEK293), and 293 cells transfected with the human fibroblast activation protein (FAPα) gene (FAPα/293) were used in the experiment as FAPα-negative and FAPα-positive cells, respectively. For each type, the cells were seeded in a 24-well plate at 2×10^4 cells per well and cultured for 2 days. An appropriate amount of eight ^211At-labeled FAPI derivatives (Gly(1,F) (Example 8), PEG(1,F) (Example 5), PIP(1,F) (Example 1), PIP(1,H)-8Qui (Example 3), Ac-PIP (Example 13), PEG4(1,H) (Example 7), GlcN-PEG(1,F) (Example 11), PEG(1,H) (Example 6)) were added to each type of the above cells, respectively, and cultured for 30 min. The supernatant was removed by aspiration, and then 0.1N sodium hydroxide solution was added to lyse the cells, and the intracellular radioactivity was measured by a gamma counter. The radioactivity count was corrected per unit protein amount (counts/μg protein). The three compounds with the highest uptake levels into FAPα-positive cells were PIP(1,F)>PIP(1,H)-8Qui>PEG(1,H), in order of […] level.

[2] = test system: Human pancreatic cancer cells (PANC-1); assay: Inhibitory effect on tumor growth in human pancreatic cancer-transplanted mice; format: in vivo, nude mice; conditions: PANC-1 subcutaneous, intravenous 1 MBq per mouse, N=4, three weeks, vs saline control
Protocol: (§1) Human pancreatic cancer cells (PANC-1) were subcutaneously administered at 1×10^7 cells to nude mice (male, 6-weeks old) to generate pancreatic cancer-transplanted mice. The mice were intravenously injected with ^211At(C1)-Pip-6Qui-FAPI(H) (PIP(1,H), Example 2) or 211At(C1)-PEG2-6Qui-FAPI(H) (PEG(1,H), Example 6) at 1 MBq per mouse (N=4). Physiological saline was administered to the control group (Control (Saline)) (N=4).

[3] = Changes in body weight of human pancreatic cancer-transplanted mice; format: in vivo, nude mice; conditions: intravenous 1 MBq per mouse, N=4, three weeks, vs saline control
Protocol: as §1

[4] = Stability of the radiolabeled product; format: physicochemical; conditions: alkylene chain length 0, after purification
FAPα/MDA-MB-231 cells = assay: Uptake of 211At-labeled FAPI derivatives into MDA-MB-231 and FAPα/MDA-MB-231 cells; format: cell-based, human; conditions: for uptake level in dependence on FAPα expression: MDA-MB-231 (low FAPα) vs FAPα/MDA-MB-231 (high FAPα), 30 min; for competitive inhibition by addition of the corresponding unlabeled form: MDA-MB-231 / FAPα/MDA-MB-231 cells
Description: (§2) Human non-small cell lung cancer cell lines (A549), human triple-negative (estrogen and progesterone receptors which are hormone receptors, as well as HER2 protein, are all absent) breast cancer cell lines (MDA-MB-231), and A549 cells and MDA-MB-231 cells, each transfected with the human fibroblast activation protein (FAPα) gene (FAPα/A549, FAPα/MDA-MB-231) were used in the experiments as cancer cells with low FAPα expression and cancer cells with high FAPα expression (mimic after high-order histogenesis), respectively. For each type, the cells were seeded in a 24-well plate at 2×10^4 cells per well and cultured for 2 days. An appropriate amount of two ^211At-labeled FAPI derivatives (PIP(1,H) […], PIP-amide(1,H) (Example 14)) were added to each type of the above cells, respectively, and cultured for 30 min. The supernatant was removed by aspiration, and the cells were washed with PBS(−), and then 0.1N sodium hydroxide solution was added to lyse the cells, and the intracellular radioactivity was measured by a gamma counter. The radioactivity count was corrected per unit protein amount (counts/μg protein). […] Considering that the uptake level into human embryonic kidney-derived cells (HEK293) was about 20 counts/μg protein at most, based on the results of PIP(1,F) and the like in Experimental Example 1, it can be said that cancer cells take up more FAPI derivatives than non-cancer cells.

FAPα/A549 cells = assay: Uptake of 211At-labeled FAPI derivatives into A549 and FAPα/A549 cells; format: cell-based, human; conditions: for uptake level in dependence on FAPα expression: A549 (low FAPα) vs FAPα/A549 (high FAPα), 30 min; for competitive inhibition by addition of the corresponding unlabeled form: A549 / FAPα/A549 cells
Description: as §2

Compound | uptake levels into FAPα-positive cells (intracellular radioactivity) [1] | inhibitory effect on tumor growth (tumor size) [2] | changes in body weight [3] | stability of the product [4] | uptake level in dependence on FAPα expression (FAPα/MDA-MB-231 cells) | competitive inhibition by addition of the corresponding unlabeled form (FAPα/MDA-MB-231 cells) | uptake level in dependence on FAPα expression (FAPα/A549 cells) | competitive inhibition by addition of the corresponding unlabeled form (FAPα/A549 cells) | further results
N#C[C@@H]1CCCN1C(=O)CNC(=O)c1ccnc2c(OCCCN3CCN(C(=O)Cc4ccc([211At])cc4)CC3)cccc12 [Example 3, ^211At(C1)-Pip-8Qui-FAPI(H)] | PIP(1,F)>PIP(1,H)-8Qui>PEG(1,H) |  |  |  |  |  |  |  | 
N#C[C@@H]1CCCN1C(=O)CNC(=O)c1ccnc2ccc(OCCOCCNC(=O)Cc3ccc([211At])cc3)cc12 [Example 6, ^211At(C1)-PEG2-6Qui-FAPI(H)] | PIP(1,F)>PIP(1,H)-8Qui>PEG(1,H) | superior inhibitory effects on tumor growth compared to the control group | comparable to that of the control group |  |  |  |  |  | 
N#C[C@@H]1CCCN1C(=O)CNC(=O)c1ccnc2ccc(OCCCN3CCN(C(=O)CCCO[C@@H]4OC(CO)[C@@H](O)C(O)[C@@H]4NC(=O)c4ccc([211At])cc4)CC3)cc12 (stereo partly drawn) [Example 10, ^211At(C0)-GlcN-Pip-6Qui-FAPI(H)] |  |  |  | low |  |  |  |  | 
N#C[C@@H]1CCCN1C(=O)CNC(=O)c1ccnc2ccc(OCCCN3CCN(C(=O)Cc4ccc([211At])cc4)CC3)cc12 [Example 2, ^211At(C1)-Pip-6Qui-FAPI(H)] |  | superior inhibitory effects on tumor growth compared to the control group | comparable to that of the control group |  | uptake level increased as FAPα expression increased | could be suppressed to a low level | uptake level increased as FAPα expression increased | could be suppressed to a low level | uptake level (intracellular radioactivity), comparison between derivatives (FAPα/MDA-MB-231 cells; MDA-MB-231 and FAPα/MDA-MB-231 cells, cultured 30 min): slightly higher than that of PIP-amide(1,H); uptake level (intracellular radioactivity), comparison between derivatives (FAPα/A549 cells; A549 and FAPα/A549 cells, cultured 30 min): slightly higher than that of PIP-amide(1,H)
N#C[C@@H]1CCCN1C(=O)CNC(=O)c1ccnc2ccc(OCCC(=O)N3CCN(C(=O)Cc4ccc([211At])cc4)CC3)cc12 [Example 14, ^211At(C1)-Pip-amido-6Qui-FAPI(H)] |  |  |  |  | uptake level increased as FAPα expression increased | could be suppressed to a low level | uptake level increased as FAPα expression increased | could be suppressed to a low level | 
N#C[C@@H]1CC(F)(F)CN1C(=O)CNC(=O)c1ccnc2ccc(OCCCN3CCN(C(=O)CCCO[C@@H]4OC(CO)[C@@H](O)C(O)[C@@H]4NC(=O)c4ccc([211At])cc4)CC3)cc12 (stereo partly drawn) [Example 9, ^211At(CO)-GlcN-Pip-6Qui-FAPI(F)] |  |  |  | low |  |  |  |  | 
